# Experimental data from ChEMBL document CHEMBL1201861, “Genomics of Drug Sensitity in Cancer screening data, Wellcome Trust Sanger Institute”.
# System: BPH-1;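 note: cell viability assay measuring growth inhibition of human BPH-1 cells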
# Experiment: cells
# Assay type: functional, cell-based, Homo sapiens
# Conditions: Homo sapiens, BPH-1
row,Structure (SMILES),IC50
1,CCN(CC)CCCCNc1ncc2cc(-c3cc(OC)cc(OC)c3)c(NC(=O)NC(C)(C)C)nc2n1 [PD-173074],> 2000 nM

# System: IGR-1;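 note: growth inhibition of human IGR-1 cells, read out with a cell viability assay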
# Experiment: cells
# Assay type: functional, cell-based, Homo sapiens
# Conditions: Homo sapiens, IGR-1
# Description: SANGER: Inhibition of human IGR-1 cell growth in a cell viability assay.
row,Structure (SMILES),IC50
1,CCN(CC)CCCCNc1ncc2cc(-c3cc(OC)cc(OC)c3)c(NC(=O)NC(C)(C)C)nc2n1 [PD-173074],> 2000 nM

# System: NCI-H2170;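 note: cell viability assay measuring growth inhibition of human NCI-H2170 cancer cells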
# Experiment: cells
# Assay type: functional, cell-based, Homo sapiens
# Conditions: Homo sapiens, NCI-H2170
# Description: SANGER: Inhibition of human NCI-H2170 cell growth in a cell viability assay.
row,Structure (SMILES),IC50
1,CCN(CC)CCCCNc1ncc2cc(-c3cc(OC)cc(OC)c3)c(NC(=O)NC(C)(C)C)nc2n1 [PD-173074],> 2000 nM

# System: BHT-101
# Experiment: cells
# Assay type: functional, cell-based, Homo sapiens
# Conditions: Homo sapiens, BHT-101
# Description: SANGER: Inhibition of human BHT-101 cell growth in a cell viability assay.
row,Structure (SMILES),IC50
1,CCN(CC)CCCCNc1ncc2cc(-c3cc(OC)cc(OC)c3)c(NC(=O)NC(C)(C)C)nc2n1 [PD-173074],> 0.002 mM
2,CN(C)C(=N)NC(=N)N [METFORMIN],6.42 mM

# System: SW1417;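 note: growth inhibition of human SW1417 cells, read out with a cell viability assay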
# Experiment: cells
# Assay type: functional, cell-based, Homo sapiens
# Conditions: Homo sapiens, SW1417
# Description: SANGER: Inhibition of human SW1417 cell growth in a cell viability assay.
row,Structure (SMILES),IC50
1,CCN(CC)CCCCNc1ncc2cc(-c3cc(OC)cc(OC)c3)c(NC(=O)NC(C)(C)C)nc2n1 [PD-173074],> 2000 nM

# System: Ca-Ski;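 note: cell viability assay measuring inhibition of Ca-Ski cell growth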
# Experiment: cells
# Assay type: functional, cell-based, Homo sapiens
# Conditions: Homo sapiens, Ca-Ski
# Description: SANGER: Inhibition of human Ca-Ski cell growth in a cell viability assay.
row,Structure (SMILES),IC50
1,CCN(CC)CCCCNc1ncc2cc(-c3cc(OC)cc(OC)c3)c(NC(=O)NC(C)(C)C)nc2n1 [PD-173074],> 0.002 mM
2,CN(C)C(=N)NC(=N)N [METFORMIN],> 20 mM

# System: SW-620;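 note: growth inhibition of human SW-620 cells, measured by a cell viability assay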
# Experiment: cells
# Assay type: functional, cell-based, Homo sapiens
# Conditions: Homo sapiens, SW-620
# Description: SANGER: Inhibition of human SW620 cell growth in a cell viability assay.
row,Structure (SMILES),IC50
1,CCN(CC)CCCCNc1ncc2cc(-c3cc(OC)cc(OC)c3)c(NC(=O)NC(C)(C)C)nc2n1 [PD-173074],> 2000 nM

# System: SCC-4;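 note: growth inhibition of human SCC-4 cells, read out as cell viability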
# Experiment: cells
# Assay type: functional, cell-based, Homo sapiens
# Conditions: Homo sapiens, SCC-4
# Description: SANGER: Inhibition of human SCC-4 cell growth in a cell viability assay.
row,Structure (SMILES),IC50
1,CCN(CC)CCCCNc1ncc2cc(-c3cc(OC)cc(OC)c3)c(NC(=O)NC(C)(C)C)nc2n1 [PD-173074],> 0.002 mM
2,CN(C)C(=N)NC(=N)N [METFORMIN],> 20 mM

# System: KP-N-YN;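 note: growth inhibition of KP-N-YN cells, read out with a cell viability assay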
# Experiment: cells
# Assay type: functional, cell-based, Homo sapiens
# Conditions: Homo sapiens, KP-N-YN
# Description: SANGER: Inhibition of human KP-N-YN cell growth in a cell viability assay.
row,Structure (SMILES),IC50
1,CCN(CC)CCCCNc1ncc2cc(-c3cc(OC)cc(OC)c3)c(NC(=O)NC(C)(C)C)nc2n1 [PD-173074],> 2000 nM

# System: OAW-28;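 note: growth inhibition of OAW-28 cells, read out with a cell viability assay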
# Experiment: cells
# Assay type: functional, cell-based, Homo sapiens
# Conditions: Homo sapiens, OAW-28
# Description: SANGER: Inhibition of human OAW-28 cell growth in a cell viability assay.
row,Structure (SMILES),IC50
1,CCN(CC)CCCCNc1ncc2cc(-c3cc(OC)cc(OC)c3)c(NC(=O)NC(C)(C)C)nc2n1 [PD-173074],> 0.002 mM
2,CN(C)C(=N)NC(=N)N [METFORMIN],> 20 mM

# System: RCM-1;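 note: growth inhibition of the RCM-1 line, determined with a cell viability readout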
# Experiment: cells
# Assay type: functional, cell-based, Homo sapiens
# Conditions: Homo sapiens, RCM-1
# Description: SANGER: Inhibition of human RCM-1 cell growth in a cell viability assay.
row,Structure (SMILES),IC50
1,CCN(CC)CCCCNc1ncc2cc(-c3cc(OC)cc(OC)c3)c(NC(=O)NC(C)(C)C)nc2n1 [PD-173074],> 0.002 mM
2,CN(C)C(=N)NC(=N)N [METFORMIN],> 20 mM

# System: NY
# Experiment: cells
# Assay type: functional, cell-based, Homo sapiens
# Conditions: Homo sapiens, NY
# Description: SANGER: Inhibition of human NY cell growth in a cell viability assay.
row,Structure (SMILES),IC50
1,CCN(CC)CCCCNc1ncc2cc(-c3cc(OC)cc(OC)c3)c(NC(=O)NC(C)(C)C)nc2n1 [PD-173074],> 0.002 mM
2,CN(C)C(=N)NC(=N)N [METFORMIN],14.1 mM

# System: RD
# Experiment: cells
# Assay type: functional, cell-based, Homo sapiens
# Conditions: Homo sapiens, RD
# Description: SANGER: Inhibition of human RD cell growth in a cell viability assay.
row,Structure (SMILES),IC50
1,CCN(CC)CCCCNc1ncc2cc(-c3cc(OC)cc(OC)c3)c(NC(=O)NC(C)(C)C)nc2n1 [PD-173074],> 0.002 mM
2,CN(C)C(=N)NC(=N)N [METFORMIN],> 20 mM

# System: NCI-H2030;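 note: growth inhibition of human NCI-H2030 cells, read out by a cell viability assay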
# Experiment: cells
# Assay type: functional, cell-based, Homo sapiens
# Conditions: Homo sapiens, NCI-H2030
# Description: SANGER: Inhibition of human NCI-H2030 cell growth in a cell viability assay.
row,Structure (SMILES),IC50
1,CCN(CC)CCCCNc1ncc2cc(-c3cc(OC)cc(OC)c3)c(NC(=O)NC(C)(C)C)nc2n1 [PD-173074],> 2000 nM

# System: KNS-62;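 note: inhibition of cell growth, read out with a cell viability assay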
# Experiment: cells
# Assay type: functional, cell-based, Homo sapiens
# Conditions: Homo sapiens, KNS-62
# Description: SANGER: Inhibition of human KNS-62 cell growth in a cell viability assay.
row,Structure (SMILES),IC50
1,CCN(CC)CCCCNc1ncc2cc(-c3cc(OC)cc(OC)c3)c(NC(=O)NC(C)(C)C)nc2n1 [PD-173074],> 0.002 mM
2,CN(C)C(=N)NC(=N)N [METFORMIN],> 20 mM

# System: RERF-LC-MS;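 note: growth inhibition of human RERF-LC-MS cells, read out by a cell viability assay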
# Experiment: cells
# Assay type: functional, cell-based, Homo sapiens
# Conditions: Homo sapiens, RERF-LC-MS
# Description: SANGER: Inhibition of human RERF-LC-MS cell growth in a cell viability assay.
row,Structure (SMILES),IC50
1,CCN(CC)CCCCNc1ncc2cc(-c3cc(OC)cc(OC)c3)c(NC(=O)NC(C)(C)C)nc2n1 [PD-173074],> 0.002 mM
2,CN(C)C(=N)NC(=N)N [METFORMIN],14.4 mM

# System: HCC1954;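 note: growth inhibition of human HCC1954 cells, read out with a cell viability assay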
# Experiment: cells
# Assay type: functional, cell-based, Homo sapiens
# Conditions: Homo sapiens, HCC1954
# Description: SANGER: Inhibition of human HCC1954 cell growth in a cell viability assay.
row,Structure (SMILES),IC50
1,CCN(CC)CCCCNc1ncc2cc(-c3cc(OC)cc(OC)c3)c(NC(=O)NC(C)(C)C)nc2n1 [PD-173074],> 2000 nM

# System: CAKI-1;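 note: growth inhibition of CAKI-1 cells, measured by a cell viability assay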
# Experiment: cells
# Assay type: functional, cell-based, Homo sapiens
# Conditions: Homo sapiens, CAKI-1
# Description: SANGER: Inhibition of human CAKI-1 cell growth in a cell viability assay.
row,Structure (SMILES),IC50
1,CCN(CC)CCCCNc1ncc2cc(-c3cc(OC)cc(OC)c3)c(NC(=O)NC(C)(C)C)nc2n1 [PD-173074],> 0.002 mM
2,CN(C)C(=N)NC(=N)N [METFORMIN],> 20 mM

# System: HOP-92;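 note: cell viability readout, with IC50 reflecting inhibition of HOP-92 cell growth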
# Experiment: cells
# Assay type: functional, cell-based, Homo sapiens
# Conditions: Homo sapiens, HOP-92
# Description: SANGER: Inhibition of human HOP-92 cell growth in a cell viability assay.
row,Structure (SMILES),IC50
1,CCN(CC)CCCCNc1ncc2cc(-c3cc(OC)cc(OC)c3)c(NC(=O)NC(C)(C)C)nc2n1 [PD-173074],> 2000 nM

# System: NCI-H460;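 note: cell viability assay scoring growth inhibition of human NCI-H460 cells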
# Experiment: cells
# Assay type: functional, cell-based, Homo sapiens
# Conditions: Homo sapiens, NCI-H460
# Description: SANGER: Inhibition of human NCI-H460 cell growth in a cell viability assay.
row,Structure (SMILES),IC50
1,CCN(CC)CCCCNc1ncc2cc(-c3cc(OC)cc(OC)c3)c(NC(=O)NC(C)(C)C)nc2n1 [PD-173074],> 0.002 mM
2,CN(C)C(=N)NC(=N)N [METFORMIN],> 20 mM

# System: EFO-21;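 note: growth inhibition of EFO-21 cells measured with a viability assay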
# Experiment: cells
# Assay type: functional, cell-based, Homo sapiens
# Conditions: Homo sapiens, EFO-21
# Description: SANGER: Inhibition of human EFO-21 cell growth in a cell viability assay.
row,Structure (SMILES),IC50
1,CCN(CC)CCCCNc1ncc2cc(-c3cc(OC)cc(OC)c3)c(NC(=O)NC(C)(C)C)nc2n1 [PD-173074],> 0.002 mM
2,CN(C)C(=N)NC(=N)N [METFORMIN],> 20 mM

# System: SW13;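 note: IC50 is inhibition of SW13 cell growth, read out with a cell viability assay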
# Experiment: cells
# Assay type: functional, cell-based, Homo sapiens
# Conditions: Homo sapiens, SW13
# Description: SANGER: Inhibition of human SW13 cell growth in a cell viability assay.
row,Structure (SMILES),IC50
1,CCN(CC)CCCCNc1ncc2cc(-c3cc(OC)cc(OC)c3)c(NC(=O)NC(C)(C)C)nc2n1 [PD-173074],> 0.002 mM
2,CN(C)C(=N)NC(=N)N [METFORMIN],10 mM

# System: ZR-75-30;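 note: growth inhibition of ZR-75-30 cells, measured with a cell viability readout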
# Experiment: cells
# Assay type: functional, cell-based, Homo sapiens
# Conditions: Homo sapiens, ZR-75-30
# Description: SANGER: Inhibition of human ZR-75-30 cell growth in a cell viability assay.
row,Structure (SMILES),IC50
1,CCN(CC)CCCCNc1ncc2cc(-c3cc(OC)cc(OC)c3)c(NC(=O)NC(C)(C)C)nc2n1 [PD-173074],> 0.002 mM
2,CN(C)C(=N)NC(=N)N [METFORMIN],14.9 mM

# System: KYSE-150 cell line;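 note: growth inhibition of human KYSE-150 cells, read out with a cell viability assay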
# Experiment: cells
# Assay type: functional, cell-based, Homo sapiens
# Conditions: Homo sapiens, KYSE-150
# Description: SANGER: Inhibition of human KYSE-150 cell growth in a cell viability assay.
row,Structure (SMILES),IC50
1,CCN(CC)CCCCNc1ncc2cc(-c3cc(OC)cc(OC)c3)c(NC(=O)NC(C)(C)C)nc2n1 [PD-173074],> 2000 nM

# System: HMV-2 cell line;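 note: growth inhibition of HMV-II cells, read out with a cell viability assay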
# Experiment: cells
# Assay type: functional, cell-based, Homo sapiens
# Conditions: Homo sapiens, HMV-2
# Description: SANGER: Inhibition of human HMV-II cell growth in a cell viability assay.
row,Structure (SMILES),IC50
1,CCN(CC)CCCCNc1ncc2cc(-c3cc(OC)cc(OC)c3)c(NC(=O)NC(C)(C)C)nc2n1 [PD-173074],> 2000 nM

# System: MEL-JUSO;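 note: growth inhibition of human MEL-JUSO cells, read out with a cell viability assay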
# Experiment: cells
# Assay type: functional, cell-based, Homo sapiens
# Conditions: Homo sapiens, MEL-JUSO
# Description: SANGER: Inhibition of human MEL-JUSO cell growth in a cell viability assay.
row,Structure (SMILES),IC50
1,CN(C)C(=N)NC(=N)N [METFORMIN],16 mM

# System: MDA-MB-415
# Experiment: cells
# Assay type: functional, cell-based, Homo sapiens
# Conditions: Homo sapiens, MDA-MB-415
row,Structure (SMILES),IC50
1,CCN(CC)CCCCNc1ncc2cc(-c3cc(OC)cc(OC)c3)c(NC(=O)NC(C)(C)C)nc2n1 [PD-173074],> 0.002 mM
2,CN(C)C(=N)NC(=N)N [METFORMIN],16.8 mM

# System: SAOS-2;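 note: growth inhibition of human Saos-2 cells determined by a cell viability assay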
# Experiment: cells
# Assay type: functional, cell-based, Homo sapiens
# Conditions: Homo sapiens, SAOS-2
# Description: SANGER: Inhibition of human Saos-2 cell growth in a cell viability assay.
row,Structure (SMILES),IC50
1,CCN(CC)CCCCNc1ncc2cc(-c3cc(OC)cc(OC)c3)c(NC(=O)NC(C)(C)C)nc2n1 [PD-173074],> 2000 nM

# System: MKN-7;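 note: growth inhibition of MKN-7 cells, read out with a cell viability assay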
# Experiment: cells
# Assay type: functional, cell-based, Homo sapiens
# Conditions: Homo sapiens, MKN-7
# Description: SANGER: Inhibition of human MKN7 cell growth in a cell viability assay.
row,Structure (SMILES),IC50
1,CCN(CC)CCCCNc1ncc2cc(-c3cc(OC)cc(OC)c3)c(NC(=O)NC(C)(C)C)nc2n1 [PD-173074],> 2000 nM

# System: NCI-H2405;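 note: growth inhibition of the human cell line, read out with a cell viability assay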
# Experiment: cells
# Assay type: functional, cell-based, Homo sapiens
# Conditions: Homo sapiens, NCI-H2405
# Description: SANGER: Inhibition of human NCI-H2405 cell growth in a cell viability assay.
row,Structure (SMILES),IC50
1,CCN(CC)CCCCNc1ncc2cc(-c3cc(OC)cc(OC)c3)c(NC(=O)NC(C)(C)C)nc2n1 [PD-173074],> 2000 nM

# System: ACHN;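 note: cell viability read-out used to gauge how strongly growth of human ACHN cells is suppressed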
# Experiment: cells
# Assay type: functional, cell-based, Homo sapiens
# Conditions: Homo sapiens, ACHN
# Description: SANGER: Inhibition of human ACHN cell growth in a cell viability assay.
row,Structure (SMILES),IC50
1,CCN(CC)CCCCNc1ncc2cc(-c3cc(OC)cc(OC)c3)c(NC(=O)NC(C)(C)C)nc2n1 [PD-173074],> 0.002 mM
2,CN(C)C(=N)NC(=N)N [METFORMIN],> 20 mM

# System: NCI-H1703;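 note: growth inhibition of NCI-H1703 cells, read out via a cell viability assay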
# Experiment: cells
# Assay type: functional, cell-based, Homo sapiens
# Conditions: Homo sapiens, NCI-H1703
# Description: SANGER: Inhibition of human NCI-H1703 cell growth in a cell viability assay.
row,Structure (SMILES),IC50
1,CN(C)C(=N)NC(=N)N [METFORMIN],17.3 mM

# System: Detroit 562;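 note: growth inhibition of human Detroit 562 cells, read out by a cell viability assay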
# Experiment: cells
# Assay type: functional, cell-based, Homo sapiens
# Conditions: Homo sapiens, Detroit 562
# Description: SANGER: Inhibition of human Detroit562 cell growth in a cell viability assay.
row,Structure (SMILES),IC50
1,CCN(CC)CCCCNc1ncc2cc(-c3cc(OC)cc(OC)c3)c(NC(=O)NC(C)(C)C)nc2n1 [PD-173074],> 0.002 mM
2,CN(C)C(=N)NC(=N)N [METFORMIN],16.5 mM

# System: SCC-9;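 note: Read-out is a cell viability assay, with values giving inhibition of cell growth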
# Experiment: cells
# Assay type: functional, cell-based, Homo sapiens
# Conditions: Homo sapiens, SCC-9
# Description: SANGER: Inhibition of human SCC-9 cell growth in a cell viability assay.
row,Structure (SMILES),IC50
1,CCN(CC)CCCCNc1ncc2cc(-c3cc(OC)cc(OC)c3)c(NC(=O)NC(C)(C)C)nc2n1 [PD-173074],> 0.002 mM
2,CN(C)C(=N)NC(=N)N [METFORMIN],10.2 mM

# System: NCI-H2452;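 note: growth inhibition of NCI-H2452 cells, read out with a cell viability assay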
# Experiment: cells
# Assay type: functional, cell-based, Homo sapiens
# Conditions: Homo sapiens, NCI-H2452
# Description: SANGER: Inhibition of human NCI-H2452 cell growth in a cell viability assay.
row,Structure (SMILES),IC50
1,CCN(CC)CCCCNc1ncc2cc(-c3cc(OC)cc(OC)c3)c(NC(=O)NC(C)(C)C)nc2n1 [PD-173074],> 2000 nM

# System: HT1197
# Experiment: cells
# Assay type: functional, cell-based, Homo sapiens, HT-1197
# Conditions: Homo sapiens, HT1197
# Description: SANGER: Inhibition of human HT-1197 cell growth in a cell viability assay.
row,Structure (SMILES),IC50
1,CCN(CC)CCCCNc1ncc2cc(-c3cc(OC)cc(OC)c3)c(NC(=O)NC(C)(C)C)nc2n1 [PD-173074],> 0.002 mM
2,CN(C)C(=N)NC(=N)N [METFORMIN],> 20 mM

# System: C3A;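 note: growth inhibition of C3A human cells, quantified with a cell viability readout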
# Experiment: cells
# Assay type: functional, cell-based, Homo sapiens
# Conditions: Homo sapiens, C3A
# Description: SANGER: Inhibition of human C3A cell growth in a cell viability assay.
row,Structure (SMILES),IC50
1,CCN(CC)CCCCNc1ncc2cc(-c3cc(OC)cc(OC)c3)c(NC(=O)NC(C)(C)C)nc2n1 [PD-173074],> 0.002 mM
2,CN(C)C(=N)NC(=N)N [METFORMIN],11.3 mM

# System: NCI-H727;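 note: growth inhibition of human NCI-H727 cells, read out with a cell viability assay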
# Experiment: cells
# Assay type: functional, cell-based, Homo sapiens
# Conditions: Homo sapiens, NCI-H727
# Description: SANGER: Inhibition of human NCI-H727 cell growth in a cell viability assay.
row,Structure (SMILES),IC50
1,CCN(CC)CCCCNc1ncc2cc(-c3cc(OC)cc(OC)c3)c(NC(=O)NC(C)(C)C)nc2n1 [PD-173074],> 0.002 mM
2,CN(C)C(=N)NC(=N)N [METFORMIN],> 20 mM
